Reference: patent US6737383B1, “Herbicidal oxadiazolidines” (priority 1999, dated 2004)

Tests used:
bermuda-grass = test: Test D bermudagrass; type: in vivo, Cynodon dactylon; conditions: Preemergence, 0 to 100 scale
Outline: (§1)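 Greenhouse pots, sandy loam, single species per pot. Preemergence tests: soil-surface application ≤1 day after planting. Compound formulated in non-phytotoxic solvent with surfactant. Visual rating 14–21 DAT, scale 0–100.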

common pursiane = test: Test D common purslane; type: in vivo, Portulaca oleracea; conditions: Preemergence, 0 to 100 scale
Outline: as §1

common ragweed = test: Test D common ragweed; type: in vivo, Ambrosia elatior; conditions: Preemergence, 0 to 100 scale
Outline: as §1

common groundsel = test: Test D common groundsel; type: in vivo, Senecio vulgaris; conditions: Preemergence, 0 to 100 scale
Outline: as §1

dallisgrass = test: Test D dallisgrass; type: in vivo, Paspalum dilatatum; conditions: Preemergence, 0 to 100 scale
Outline: as §1

goosegrass = test: Test D goosegrass; type: in vivo, Eleusine indica; conditions: Preemergence, 0 to 100 scale
Outline: as §1

guineagrass = test: Test D guineagrass; type: in vivo, Panicum maximum; conditions: Preemergence, 0 to 100 scale
Outline: as §1

itchgrass = test: Test D itchgrass; type: in vivo, Rottboellia exaltata; conditions: Preemergence, 0 to 100 scale
Outline: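 Scoring used a 0–100 visual injury scale, with 0 meaning no effect and 100 complete control, assessed 14–21 days after application alongside untreated pots. Preemergence treatments went onto sandy loam surfaces of separately potted seeds within a day of sowing.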

large crabgrass = test: Test D large crabgrass; type: in vivo, Digitaria sanguinalis; conditions: Preemergence, 0 to 100 scale
Outline: as §1

pitted morningglory = test: Test D pitted morningglory; type: in vivo, Ipomoea lacunosa; conditions: Preemergence, 0 to 100 scale
Outline: as §1

sandbur = test: Test D sandbur; type: in vivo, Cenchrus echinatus; conditions: Preemergence, 0 to 100 scale
Outline: as §1

Spanishneedles = test: Test D Spanishneedles; type: in vivo, Bidens bipinnata; conditions: Preemergence, 0 to 100 scale
Outline: as §1

surinam grass = test: Test D surinam grass; type: in vivo, Brachiaria decumbens; conditions: Preemergence, 0 to 100 scale
Outline: as §1

tall mallow = test: Test D tall mallow; type: in vivo, Malva sylvestris; conditions: Preemergence, 0 to 100 scale
Outline: as §1

Green foxtail [1] = test: Test D green foxtail; type: in vivo; conditions: Preemergence, 0 to 100 scale
Outline: as §1

Green foxtail [2] = test: Test D green foxtail; type: in vivo
Outline: as §1

[3] = Rate 16 g/ha, 0 no injury, 100 complete control
[4] = Rate 32 g/ha, 0 no injury, 100 complete control
[5] = Rate 64 g/ha, 0 no injury, 100 complete control
[6] = Preemergence; Rate 16 g/ha; 0 to 100 scale, 0 no injury, 100 complete control
[7] = Preemergence; Rate 32 g/ha; 0 to 100 scale, 0 no injury, 100 complete control
[8] = Rate 16 g/ha; Preemergence; 0 to 100 scale, 0 no injury, 100 complete control
[9] = Rate 64 g/ha, Preemergence; 0 to 100 scale, 0 no injury, 100 complete control
[10] = Rate 250 g/ha; Preemergence; 0 to 100 scale
[11] = Rate 500 g/ha, Preemergence; 0 to 100 scale
[12] = Rate 125 g/ha, 0 no injury, 100 complete control
[13] = Rate 125 g/ha, Preemergence; 0 to 100 scale, 0 no injury, 100 complete control

## CC(C)N(C(=O)n1oc(=O)n(C2CCCCC2)c1=O)c1ccccc1 [Compound 112]
bermuda-grass; [3]
  Plant response rating, Bermudagrass: 60
bermuda-grass; [4]
  Plant response rating, Bermudagrass: 75
bermuda-grass; [5]
  Plant response rating, Bermudagrass: 85
bermuda-grass; Rate 250 g/ha
  Plant response rating, Bermudagrass: 98
bermuda-grass; Rate 500 g/ha
  Plant response rating, Bermudagrass: 100
Common pursiane; [3]
  Plant response rating, C. purslane: 0
Common pursiane; [4]
  Plant response rating, C. purslane: 0
Common pursiane; [5]
  Plant response rating, C. purslane: 0
Common pursiane; Rate 250 g/ha
  Plant response rating, C. purslane: 0
Common pursiane; Rate 500 g/ha
  Plant response rating, C. purslane: 0
Common ragweed; [3]
  Plant response rating, C. ragweed: 0
Common ragweed; [4]
  Plant response rating, C. ragweed: 0
Common ragweed; [5]
  Plant response rating, C. ragweed: 0
Common ragweed; Rate 250 g/ha
  Plant response rating, C. ragweed: 0
Common ragweed; Rate 500 g/ha
  Plant response rating, C. ragweed: 0
Common groundsel; [3]
  Plant response rating, Com. groundsel: 0
Common groundsel; [4]
  Plant response rating, Com. groundsel: 0
Common groundsel; [5]
  Plant response rating, Com. groundsel: 0
Common groundsel; Rate 250 g/ha
  Plant response rating, Com. groundsel: 0
Common groundsel; Rate 500 g/ha
  Plant response rating, Com. groundsel: 10
dallisgrass; [3]
  Plant response rating, Dallisgrass: 30
dallisgrass; [4]
  Plant response rating, Dallisgrass: 65
dallisgrass; [5]
  Plant response rating, Dallisgrass: 70
dallisgrass; Rate 250 g/ha
  Plant response rating, Dallisgrass: 100
dallisgrass; Rate 500 g/ha
  Plant response rating, Dallisgrass: 100
goosegrass; [3]
  Plant response rating, Goosegrass: 40
goosegrass; [4]
  Plant response rating, Goosegrass: 40
goosegrass; [5]
  Plant response rating, Goosegrass: 85
goosegrass; Rate 250 g/ha
  Plant response rating, Goosegrass: 100
goosegrass; Rate 500 g/ha
  Plant response rating, Goosegrass: 100
guineagrass; [3]
  Plant response rating, Guineagrass: 0
guineagrass; [4]
  Plant response rating, Guineagrass: 0
guineagrass; [5]
  Plant response rating, Guineagrass: 40
guineagrass; Rate 250 g/ha
  Plant response rating, Guineagrass: 90
guineagrass; Rate 500 g/ha
  Plant response rating, Guineagrass: 100
itchgrass; [3]
  Plant response rating, Itchgrass: 0
itchgrass; [4]
  Plant response rating, Itchgrass: 0
itchgrass; [5]
  Plant response rating, Itchgrass: 0
itchgrass; Rate 250 g/ha
  Plant response rating, Itchgrass: 0
itchgrass; Rate 500 g/ha
  Plant response rating, Itchgrass: 80
Large crabgrass; [3]
  Plant response rating, Large crabgrass: 10
Large crabgrass; [4]
  Plant response rating, Large crabgrass: 10
Large crabgrass; [5]
  Plant response rating, Large crabgrass: 10
Large crabgrass; Rate 250 g/ha
  Plant response rating, Large crabgrass: 100
Large crabgrass; Rate 500 g/ha
  Plant response rating, Large crabgrass: 100
Pitted morningglory; [3]
  Plant response rating, P. morninglory: 0
Pitted morningglory; [4]
  Plant response rating, P. morninglory: 0
Pitted morningglory; [5]
  Plant response rating, P. morninglory: 0
Pitted morningglory; Rate 250 g/ha
  Plant response rating, P. morninglory: 0
Pitted morningglory; Rate 500 g/ha
  Plant response rating, P. morninglory: 10
sandbur; [3]
  Plant response rating, Sandbur: 0
sandbur; [4]
  Plant response rating, Sandbur: 0
sandbur; [5]
  Sandbur plant response rating: 0
sandbur; Rate 250 g/ha
  Plant response rating, Sandbur: 0
sandbur; Rate 500 g/ha
  Plant response rating, Sandbur: 100
Spanishneedles; [3]
  Plant response rating, Spanishneedles: 0
Spanishneedles; [4]
  Plant response rating, Spanishneedles: 0
Spanishneedles; [5]
  Spanishneedles plant response rating: 0
Spanishneedles; Rate 500 g/ha
  Plant response rating, Spanishneedles: 10
Surinam grass; [3]
  Plant response rating, Surinam grass: 0
Surinam grass; [4]
  Plant response rating, Surinam grass: 0
Surinam grass; [5]
  Surinam grass plant response rating: 0
Surinam grass; Rate 250 g/ha
  Plant response rating, Surinam grass: 0
Surinam grass; Rate 500 g/ha
  Plant response rating, Surinam grass: 98
Tall mallow; [3]
  Plant response rating, Tall Mallow: 0
Tall mallow; [4]
  Plant response rating, Tall Mallow: 0
Tall mallow; [5]
  Tall Mallow plant response rating: 0
Tall mallow; Rate 250 g/ha
  Plant response rating, Tall Mallow: 0
Tall mallow; Rate 500 g/ha
  Plant response rating, Tall Mallow: 20
Green foxtail [1]; Rate 250 g/ha
  Plant response rating, Green foxtail: 98
Green foxtail [1]; Rate 500 g/ha
  Plant response rating, Green foxtail: 0
Green foxtail [2]; [6]
  Plant response rating, Green foxtail: 0
Green foxtail [2]; [7]
  Plant response rating, Green foxtail: 0
Green foxtail [2]; [8]
  Plant response rating, Green foxtail: 0
Green foxtail [2]; Rate 32 g/ha; Preemergence; 0 to 100 scale, 0 no injury, 100 complete control
  Plant response rating, Green foxtail: 98
Green foxtail [2]; [9]
  Green foxtail plant response rating: 85
  Plant response rating, Green foxtail: 85
Green foxtail [2]; [10]
  Plant response rating, Green foxtail: 98
Green foxtail [2]; [11]
  Plant response rating, Green foxtail: 0

## COc1ccccc1-n1c(=O)on(C(=O)N(c2ccc(F)cc2)C(C)C)c1=O [Compound 30]
bermuda-grass; [3]
  Plant response rating, Bermudagrass: 50
bermuda-grass; [4]
  Plant response rating, Bermudagrass: 65
bermuda-grass; [5]
  Plant response rating, Bermudagrass: 98
bermuda-grass; [12]
  Plant response rating, Bermudagrass: 98
bermuda-grass; Rate 250 g/ha
  Plant response rating, Bermudagrass: 98
bermuda-grass; Rate 500 g/ha
  Plant response rating, Bermudagrass: 100
Common pursiane; [3]
  Plant response rating, C. purslane: 0
Common pursiane; [4]
  Plant response rating, C. purslane: 0
Common pursiane; [5]
  Plant response rating, C. purslane: 0
Common pursiane; [12]
  Plant response rating, C. purslane: 0
Common pursiane; Rate 250 g/ha
  Plant response rating, C. purslane: 0
Common pursiane; Rate 500 g/ha
  Plant response rating, C. purslane: 0
Common ragweed; [3]
  Plant response rating, C. ragweed: 0
Common ragweed; [4]
  Plant response rating, C. ragweed: 0
Common ragweed; [5]
  Plant response rating, C. ragweed: 0
Common ragweed; [12]
  Plant response rating, C. ragweed: 0
Common ragweed; Rate 250 g/ha
  Plant response rating, C. ragweed: 0
Common ragweed; Rate 500 g/ha
  Plant response rating, C. ragweed: 0
Common groundsel; [3]
  Plant response rating, Com. groundsel: 0
Common groundsel; [4]
  Plant response rating, Com. groundsel: 0
Common groundsel; [5]
  Plant response rating, Com. groundsel: 0
Common groundsel; [12]
  Plant response rating, Com. groundsel: 0
Common groundsel; Rate 250 g/ha
  Plant response rating, Com. groundsel: 0
Common groundsel; Rate 500 g/ha
  Plant response rating, Com. groundsel: 100
dallisgrass; [3]
  Plant response rating, Dallisgrass: 0
dallisgrass; [4]
  Plant response rating, Dallisgrass: 0
dallisgrass; [5]
  Plant response rating, Dallisgrass: 50
dallisgrass; [12]
  Plant response rating, Dallisgrass: 60
dallisgrass; Rate 250 g/ha
  Plant response rating, Dallisgrass: 80
dallisgrass; Rate 500 g/ha
  Plant response rating, Dallisgrass: 100
goosegrass; [3]
  Plant response rating, Goosegrass: 30
goosegrass; [4]
  Plant response rating, Goosegrass: 40
goosegrass; [5]
  Plant response rating, Goosegrass: 70
goosegrass; [12]
  Plant response rating, Goosegrass: 85
goosegrass; Rate 250 g/ha
  Plant response rating, Goosegrass: 85
goosegrass; Rate 500 g/ha
  Plant response rating, Goosegrass: 98
guineagrass; [3]
  Plant response rating, Guineagrass: 30
guineagrass; [4]
  Plant response rating, Guineagrass: 30
guineagrass; [5]
  Plant response rating, Guineagrass: 40
guineagrass; [12]
  Plant response rating, Guineagrass: 75
guineagrass; Rate 250 g/ha
  Plant response rating, Guineagrass: 98
guineagrass; Rate 500 g/ha
  Plant response rating, Guineagrass: 98
itchgrass; [3]
  Plant response rating, Itchgrass: 20
itchgrass; [4]
  Plant response rating, Itchgrass: 20
itchgrass; [5]
  Plant response rating, Itchgrass: 40
itchgrass; [12]
  Plant response rating, Itchgrass: 75
itchgrass; Rate 250 g/ha
  Plant response rating, Itchgrass: 75
Large crabgrass; [3]
  Plant response rating, Large crabgrass: 40
Large crabgrass; [4]
  Plant response rating, Large crabgrass: 40
Large crabgrass; [5]
  Plant response rating, Large crabgrass: 85
Large crabgrass; [12]
  Plant response rating, Large crabgrass: 98
Large crabgrass; Rate 250 g/ha
  Plant response rating, Large crabgrass: 98
Large crabgrass; Rate 500 g/ha
  Plant response rating, Large crabgrass: 100
Pitted morningglory; [3]
  Plant response rating, P. morninglory: 0
Pitted morningglory; [4]
  Plant response rating, P. morninglory: 0
Pitted morningglory; [5]
  Plant response rating, P. morninglory: 0
Pitted morningglory; [12]
  Plant response rating, P. morninglory: 0
Pitted morningglory; Rate 250 g/ha
  Plant response rating, P. morninglory: 0
Pitted morningglory; Rate 500 g/ha
  Plant response rating, P. morninglory: 0
sandbur; [3]
  Plant response rating, Sandbur: 0
sandbur; [4]
  Plant response rating, Sandbur: 0
sandbur; [5]
  Sandbur plant response rating: 0
sandbur; [12]
  Sandbur plant response rating: 40
sandbur; Rate 250 g/ha
  Plant response rating, Sandbur: 40
sandbur; Rate 500 g/ha
  Plant response rating, Sandbur: 100
Spanishneedles; [3]
  Plant response rating, Spanishneedles: 0
Spanishneedles; [4]
  Plant response rating, Spanishneedles: 0
Spanishneedles; [5]
  Spanishneedles plant response rating: 0
Spanishneedles; [12]
  Spanishneedles plant response rating: 0
Spanishneedles; Rate 500 g/ha
  Plant response rating, Spanishneedles: 0
Surinam grass; [4]
  Plant response rating, Surinam grass: 40
Surinam grass; [5]
  Surinam grass plant response rating: 40
Surinam grass; [12]
  Surinam grass plant response rating: 40
Surinam grass; Rate 250 g/ha
  Plant response rating, Surinam grass: 85
Surinam grass; Rate 500 g/ha
  Plant response rating, Surinam grass: 85
Tall mallow; [3]
  Plant response rating, Tall Mallow: 0
Tall mallow; [4]
  Plant response rating, Tall Mallow: 0
Tall mallow; [5]
  Tall Mallow plant response rating: 0
Tall mallow; [12]
  Tall Mallow plant response rating: 0
Tall mallow; Rate 250 g/ha
  Plant response rating, Tall Mallow: 0
Tall mallow; Rate 500 g/ha
  Plant response rating, Tall Mallow: 0
Green foxtail [1]; Rate 250 g/ha
  Plant response rating, Green foxtail: 100
Green foxtail [1]; Rate 500 g/ha
  Plant response rating, Green foxtail: 100
Green foxtail [2]; [6]
  Plant response rating, Green foxtail: 0
Green foxtail [2]; [7]
  Plant response rating, Green foxtail: 50
Green foxtail [2]; [8]
  Plant response rating, Green foxtail: 0
Green foxtail [2]; [9]
  Green foxtail plant response rating: 85
  Plant response rating, Green foxtail: 85
Green foxtail [2]; [13]
  Green foxtail plant response rating: 85
  Plant response rating, Green foxtail: 85
Green foxtail [2]; [10]
  Plant response rating, Green foxtail: 100
Green foxtail [2]; [11]
  Plant response rating, Green foxtail: 100
